Experimental data taken from patent US20240033256A1, “INHIBITORS OF POSITIVE STRAND RNA VIRUSES” (priority 2020, published 2024).
Like-named read-outs stand apart in the source and are kept apart here.

What was measured:
SARS-CoV-2 [1] = experiment: SARS-CoV-2 cytopathic effect (CPE) by visualization in infected Vero E6 cells; format: cell-based; conditions: Severe acute respiratory syndrome coronavirus 2, Vero C1008, read-out: SARS-CoV-2 inhibition EC50, CPE
Description: Compounds 1-3 were examined for their inhibitory activity against SARS-CoV-2 in Vero E6 cells. Cytopathic effects (“CPE”) of SARS-CoV-2 infected Vero E6 cells, with treatment of compounds in 2-fold dilution at a series of 12 concentrations, were visualized. EC50 and CC50 values were calculated.

SARS-CoV-2 [2] = experiment: SARS-CoV-2 immunofluorescence assay (IFA), N protein expression in Vero E6 cells; format: cell-based
Description: Vero E6 cells derived from BCRC #60476 (Bioresource Collection and Research Center, Hsinchu, Taiwan) were treated with each compound at an indicated concentration for 1 hour at 37° C. The cells were adsorbed with SARS-CoV-2 viruses (TCDC #4, National Taiwan University, Taipei, Taiwan, ROC) at multiplicity of infection (“MOI”) of 0.01 for 1 hour at 37° C. After virus adsorption, the cells were washed with phosphate-buffered saline (“PBS”). A fresh medium containing the compound was added at an indicated concentration. The resultant mixture was incubated for 2 days. The cells were fixed with 4% paraformaldehyde and permeabilized with a 0.5% Triton™ X-100 detergent solution (Thermo Fisher Scientific, Waltham, MA). Subsequently, they were stained with an anti-SARS-CoV-2 N protein antibody and anti-human IgG-488 (in green). The nuclei of the cells were counter stained with 4′,6-diamidino-2-phenylindole (“DAPI”, Thermo Fisher Scientific, MA, USA). The N protein expression was measured using a high-content image analysis system (Molecular Devices, San Jose, CA). The cell viability was determined by Cell Counting Kit-8 (Sigma-Aldrich, St. Louis, MO) EC50 and CC50 values were calculated by Prism software. […] Both EC50 and CC50 are measured in molar units, e.g., mol/L (“M”), μmol/L (“μM”), and nmol/L (“nM”).

HCoV-OC43 = HCoV-OC43 IFA assay (N protein) in HCT-8 cells; format: cell-based
Zika virus = Zika virus IFA assay (E protein) in Vero E6 cells; format: cell-based; conditions: read-out: EC50 (Zika virus)
Description: Compounds 1-9 were evaluated for their inhibitory activities against Zika virus using an IFA assay, which targeted Zika virus Envelope (“E”) protein.
(§1) Vero E6 cells (BCRC #60476, Bioresource Collection and Research Center, Hsinchu, Taiwan) were treated with one of Compounds 1-9 at a predetermined concentration for 1 hour at 37° C. The cells were adsorbed with Zika virus (ATCC VR-1843, American Type Culture Collection, Manassas, VA, USA) at MOI=0.02 for 49 hours at 37° C. The cells were fixed with 10% formalin, permeabilized with methanol. The cells were stained with anti-flavivirus E antibody (ATCC HB-112, American Type Culture Collection, Manassas, VA, USA) and anti-mouse IgG-FITC (MP Biomedicals, Irvine, CA, USA). The nuclei were counter stained with DAPI (in blue) (Thermo Fisher Scientific, MA, USA). The E protein expression was measured using a high-content image analysis system (Molecular Devices). The cell viability was determined by MTS. Both EC50 and CC50 were calculated by Prism software.

[3] = Vero E6 cell viability by MTS (Zika study); format: cell-based; conditions: African green monkey, Vero E6 cells
Description: as §1
(§2) Their cytotoxic effects were also determined by the MTS assay described above using Vero E6 cells.

Dengue virus type 1 = Dengue virus type 1 IFA assay (E protein) in Vero E6 cells; format: cell-based; conditions: MOI 0.002, 5 days at 33° C, read-out: DV1 EC50
Description: (§3) Compounds 1-9 were evaluated for their inhibitory activities against Dengue virus, another single positive-stranded RNA virus belonging to genus of flavivirus, using an IFA assay that targeted the Dengue virus Envelope (“E”) protein.
(§4) Vero E6 cells (BCRC #60476, Bioresource Collection and Research Center, Hsinchu, Taiwan) were treated with one of Compounds 1-9 at a predetermined concentration for 1 hour at 37° C. The cells were infected with Dengue virus type 1 (“DV1”, ATCC VR-1856, American Type Culture Collection, Manassas, VA, USA) at MOI=0.002 or Dengue virus type 2 (“DV2”, ATCC VR-1584, American Type Culture Collection, Manassas, VA, USA) at MOI=0.02, both for 5 days at 33° C. They were then fixed with 10% formalin and permeabilized with methanol. Subsequently, the cells were stained with anti-flavivirus E antibody (ATCC HB-112, American Type Culture Collection, Manassas, VA, USA) and anti-mouse IgG-FITC (MP Biomedicals, Irvine, CA, USA). The nuclei of the cells were counter stained with DAPI (Thermo Fisher Scientific, MA, USA). The E protein expression was measured by using a high-content image analysis system (Molecular Devices). The cell viability was determined by MTS. EC50 and CC50 were calculated by Prism software.

Dengue virus type 2 = Dengue virus type 2 IFA assay (E protein) in Vero E6 cells; format: cell-based; conditions: MOI 0.02, 5 days at 33° C, read-out: DV2 EC50
Description: as §3, §4

[4] = Vero E6 cell viability by MTS (Dengue study); format: cell-based; conditions: African green monkey, Vero E6 cells
Description: as §4

[5] = HCT-8 cell viability (MTS); conditions: human, HCT-8 cells
HCoV-229E = HCoV-229E cytopathic effect / end point assay by TCID50 with crystal violet in MRC5 cells; conditions: Human coronavirus 229E, MRC5, read-out: EC50 (HCoV-229E)
Description: An end point assay by TCID50 was performed. Crystal violet was used to stain live cells to determine the EC50 of each compound. Further, CC50 and selective index were calculated.

SARS-CoV-2 [6] = experiment: SARS-CoV-2 plaque assay in Vero E6 cells; format: cell-based; conditions: Severe acute respiratory syndrome coronavirus 2, Vero C1008
Description: The assay was performed in triplicate in 24-well tissue culture plates. Vero E6 cells were seeded in Dulbecco's modified Eagle's medium (“DMEM”) with 10% Fetal Bovine Serum (“FBS”, Biological Industries, Kibbutz, Israel) and antibiotics one day before infection. SARS-CoV-2 viruses were added to the cell monolayer and allowed to sit for 1 hour at 37° C. After viruses were removed, the cell monolayer was washed once with PBS before covering with media containing agarose or methylcellulose for 5-7 days. The cells were fixed with 3.7% formaldehyde overnight followed by removal of overlay media. They were then stained with crystal violet to count the plaque-forming units (“PFU”). The percentage of inhibition was calculated as [1−(VD/VC)]×100%, where VD and VC refer to the virus titer in the presence and absence of a test compound, respectively.

Vero E6 cells [7] = experiment: Vero E6 cell viability by MTS (Zika study); format: cell-based
Description: as §1, §2

Vero E6 cells [8] = experiment: Vero E6 cell viability by MTS (Dengue study); format: cell-based
Description: as §4

[9] = Severe acute respiratory syndrome coronavirus 2, Vero C1008, 48 h, Vero E6 cells, MOI 0.01, 2 days, run 1, read-out: SARS-CoV-2 inhibition EC50, IFA-1
[10] = Severe acute respiratory syndrome coronavirus 2, Vero C1008, 48 h, Vero E6 cells, MOI 0.01, 2 days, run 2, read-out: SARS-CoV-2 inhibition EC50, IFA-2
[11] = Severe acute respiratory syndrome coronavirus 2, Vero C1008, IFA, range over Compounds 1, 2 and 3, read-out: EC50 against SARS-CoV-2 (range given)
[12] = Dengue virus, Vero C1008, 120 h
[13] = Betacoronavirus 1, OC43, HCT-8 cells, MOI 0.05, means ± S.D. from three independent experiments, read-out: EC50 (HCoV-OC43)
[14] = Zika virus, Vero C1008, 49 h, Vero E6 cells, MOI 0.02, 49 hours
[15] = Vero E6 cells, MOI 0.02, 49 hours

Row | Compound | EC50 (SARS-CoV-2 [1]) [µM] | EC50 (SARS-CoV-2 [2]; [9]) [µM] | EC50 (SARS-CoV-2 [2]; [10]) [µM] | EC50 (SARS-CoV-2 [2]; [11]) [µM] | CC50 [3] [µM] | EC50 (Dengue virus type 1; [12]) [µM] | EC50 (Dengue virus type 2; [12]) [µM] | CC50 [4] [µM] | CC50 [5] [µM] | EC50 (HCoV-229E) [µM] | EC50 (HCoV-OC43; [13]) [µM] | EC50 (Zika virus; [14]) [µM] | also measured
1 | COc1cc2c3c(c4cc(OC)c(OC)cc4c2cc1OC)CN1CCC[C@H]1C3 [Compound 1, (13as)-2,3,6,7-tetramethoxy-9,11,12,13,13a,14-hexahydrophenanthro[9,10-f] indolizine] | 0.078 | 0.064 | 0.0768 | 0.009 to 0.077 | > 5 | 0.0184 | 0.0325 | > 5 | > 10 | 0.0714 ± 0.0132 | – | – | EC50 (HCoV-OC43; Betacoronavirus 1, OC43, HCT-8, read-out: EC50 (HCoV-OC43)): 0.068 ± 0.0027 µM; EC50 (Zika virus; Zika virus, Vero C1008, 49 h): 0.0614 µM
2 | COc1cc2c3c(c4cc(OC)c(OC)cc4c2cc1OC)CN1CCCCC1C3 (stereo not drawn) [Compound 4] | – | – | – | – | > 5 | 0.0076 | 0.0083 | > 5 | > 10 | – | 0.0517 ± 0.0061 | 0.0133 | –
3 | CCN1CCc2c(c3cc(OC)c(OC)cc3c3cc(OC)ccc23)C1 [Compound 5] | – | – | – | – | > 5 | 0.131 | 0.286 | > 5 | > 10 | – | – | 0.156 | –
4 | CCCN1Cc2c(c3cc(OC)c(OC)cc3c3cc(OC)c(OC)cc23)C(O)C1 (stereo not drawn) [Compound 8] | – | – | – | – | > 5 | 0.247 | 0.617 | > 5 | – | – | – | 0.304 | –
5 | COc1cc2c3c(c4cc(OC)c(OC)cc4c2cc1OC)C[N+]1([O-])CCCC1C3 (stereo not drawn) [Compound 6] | – | – | – | – | > 5 | 1.64 | 2.64 | > 5 | > 10 | – | 1.89 ± 0.228 | 1.04 | Selectivity index (HCoV-OC43) (HCoV-OC43; CC50/EC50, HCT-8 cells): >5.3
6 | CCN1Cc2c(c3ccc(OC)cc3c3cc(OC)c(OC)cc23)C(O)C1C (stereo not drawn) [Compound 3] | 0.02 | 0.0316 | 0.0319 | 0.009 to 0.077 | > 5 | 0.0196 | 0.029 | > 5 | > 10 | 0.0254 ± 0.0031 | 0.0559 ± 0.0062 | 0.0159 | –
7 | CCN1Cc2c(c3ccc(OC)cc3c3cc(OC)c(OC)cc23)C(O)C1 (stereo not drawn) [Compound 2] | 0.0025 | 0.0091 | 0.0139 | 0.009 to 0.077 | > 5 | 0.0043 | 0.0047 | > 5 | > 10 | 0.0065 ± 0.001 | 0.0164 ± 0.0047 | 0.0153 | EC50 (SARS-CoV-2 [6]; Vero E6 cells, run 1, read-out: SARS-CoV-2 inhibition EC50, Plaque assay-1): 0.0108 µM; EC50 (SARS-CoV-2 [6]; Vero E6 cells, run 2, read-out: SARS-CoV-2 inhibition EC50, Plaque assay-2): 0.0138 µM; EC50 (SARS-CoV-2 [6]; infected Vero E6 cells, four measurements, read-out: EC50 against SARS-CoV-2, plaque assay, all four measurements): 0.011 to 0.014 µM
8 | CCN1Cc2c(c3cc(OC)c(OC)cc3c3cc(OC)c(OC)cc23)C(O)C1 (single isomer, unassigned) [Compound 9] | – | – | – | – | – | – | – | – | – | – | – | – | EC50 (Zika virus; [15]): 0.144 µM; CC50 (Vero E6 cells [7]): > 5 µM; EC50 (Dengue virus type 1): 0.296 µM; EC50 (Dengue virus type 2): 0.616 µM; CC50 (Vero E6 cells [8]): > 5 µM
9 | CCN1Cc2c(c3cc(OC)c(OC)cc3c3cc(OC)c(OC)cc23)C(O)C1 (single isomer, unassigned) [Compound 7] | – | – | – | – | > 5 | – | – | > 5 | – | – | – | – | EC50 (Zika virus; [15]): 0.0444 µM; EC50 (Dengue virus type 1): 0.0731 µM; EC50 (Dengue virus type 2): 0.124 µM
